Tested on: microglia
Experiment: Microglia metabolic phenotype in 5XFAD AD transgenic animals (MitotrackerGreen, 2-NBDG)
Format: in vivo, mice
Details: 25 mg/kg orally 3 times a week for 4 weeks, 7 weeks of age
Experimental: AD transgenic animals were orally treated 3 times a week for 4 weeks with 0.5% methylcellulose or ZLN005 (Sigma) at 25 mg/kg in 0.5% methylcellulose, starting at 3 weeks of age. For studies of microglia, 5[…]=10) and 5XFAD-Ctrl (n=8) animals and WT animals (n=11) were sacrificed at 7 weeks of age. PBS-perfused brain tissues of sacrificed animals were digested with Collagenase IV and processed for flow cytometry. Brain microglia were phenotyped with 2-NBDG and MitotrackerGreen (Invitrogen) for flow cytometric acquisition (LSRII, BD) and analysis (FlowJo). The results are summarized in FIG. 13; Y-axis represents % of microglia that highly expressed MitotrackerGreen (A) and had taken up 2-NBDG (B). Mitochondrial respiration and glycolysis are two key energy generating pathways in living cells. In immune cells like microglia, inflammatory transformation is associated with upregulation of glucose utilization and depression of mitochondrial biogenesis and function. […] ANOVA was used for statistical analyses.

SMILES: CC(C)(C)c1ccc(-c2nc3ccccc3[nH]2)cc1 [ZLN005, 2-(4-tert-butylphenyl)-1H-benzimidazole]
- glucose uptake in microglia (2-NBDG): decreased
- mitochondrial mass in microglia (Mitotracker Green): enhanced
